Data published in article PMC6803965, “A New Class of β–Pyrrolidino-1,2,3-Triazole Derivatives as β-Adrenergic Receptor Inhibitors: Synthesis, Pharmacological, and Docking Studies” (Molecules, 2019).
Values after ≈ are worked out from the molar mass of the structure shown.

How the values were obtained:
Assay type in all cases: cell-based
[1] = system: Candida albicans; assay: Antimicrobial well method, zone of inhibition; conditions: 1 mg/well
Procedure: (§1) Antimicrobial activity was carried out as described previously. Briefly, 20 mL of sterile Mueller Hinton agar (MHA) was poured in the petri plates and kept for solidification. After solidification, the test cultures were swabbed on the top of the media and kept for 10 min to dry. The required concentration (1 mg/well) of synthesized compounds 5a–l was added to each well and left for 30 min at RT for compound diffusion. Ketoconazole (fungi) and streptomycin (bacteria) used for positive controls. The zone of inhibition was recorded in mm and the experiment was repeated twice.

[2] = system: Enterobacter aerogenes; assay: Antimicrobial well method, zone of inhibition; conditions: Klebsiella aerogenes
Procedure: as §1

[3] = system: Klebsiella pneumoniae; assay: Antimicrobial well method, zone of inhibition
Procedure: as §1

[4] = system: Malassezia pachydermatis; assay: Antimicrobial well method, zone of inhibition
Procedure: as §1

[5] = system: Micrococcus luteus; assay: Antimicrobial well method, zone of inhibition
Procedure: as §1

[6] = system: Proteus vulgaris; assay: Antimicrobial well method, zone of inhibition
Procedure: as §1

[7] = system: Salmonella paratyphi-B; assay: Antimicrobial well method, zone of inhibition
Procedure: as §1

[8] = system: Salmonella typhimurium; assay: Antimicrobial well method, zone of inhibition; conditions: Salmonella enterica
Procedure: as §1

[9] = system: Shigella flexneri; assay: Antimicrobial well method, zone of inhibition
Procedure: as §1

[10] = system: Staphylococcus aureus-MRSA; assay: Antimicrobial well method, zone of inhibition
Procedure: as §1

[11] = system: Staphylococcus aureus; assay: Antimicrobial well method, zone of inhibition
Procedure: as §1

[12] = system: Staphylococcus epidermidis; assay: Antimicrobial well method, zone of inhibition
Procedure: as §1

[13] = system: Enterobacter aerogenes; assay: Minimum inhibitory concentration (MIC); conditions: Klebsiella aerogenes; Enterobacter aerogenes; read-out: Minimum inhibitory concentration
Procedure: (§2) The MIC experiment was carried out according to the standard reference methods. Briefly, the required concentrations of synthesized compounds 5a–l were dissolved in DMSO (Dimethylsulfoxide) in concentrations of 500 µg/mL, 250 µg/mL, 125 µg/mL, 62.5 µg/mL, 31.25 µg/mL, 15.6 µg/mL, and […]. An inoculum of 100 µL from each well (96-well plate) was inoculated. For the positive control, ketoconazole (fungi) and streptomycin (bacteria) was used. The MIC values for the tested bacteria were identified as the lowest inhibiting concentration of compound on the agar plate in visual growth.

[14] = system: Klebsiella pneumoniae; assay: Minimum inhibitory concentration (MIC); conditions: read-out: Minimum inhibitory concentration
Procedure: as §2

[15] = system: Micrococcus luteus; assay: Minimum inhibitory concentration (MIC); conditions: read-out: Minimum inhibitory concentration
Procedure: as §2

[16] = system: Proteus vulgaris; assay: Minimum inhibitory concentration (MIC); conditions: read-out: Minimum inhibitory concentration
Procedure: as §2

[17] = system: Salmonella paratyphi-B; assay: Minimum inhibitory concentration (MIC)
Procedure: as §2

[18] = system: Salmonella typhimurium; assay: Minimum inhibitory concentration (MIC); conditions: Salmonella enterica; Salmonella typhimurium; read-out: Minimum inhibitory concentration
Procedure: as §2

[19] = system: Shigella flexneri; assay: Minimum inhibitory concentration (MIC)
Procedure: as §2

[20] = system: Staphylococcus aureus-MRSA; assay: Minimum inhibitory concentration (MIC); conditions: Staphylococcus aureus-MRSA; read-out: Minimum inhibitory concentration
Procedure: as §2

[21] = system: Staphylococcus aureus; assay: Minimum inhibitory concentration (MIC); conditions: read-out: Minimum inhibitory concentration
Procedure: as §2

[22] = system: Staphylococcus epidermidis; assay: Minimum inhibitory concentration (MIC); conditions: read-out: Minimum inhibitory concentration
Procedure: as §2

[23] = system: A549 cells; assay: Cytotoxicity, aqueous one solution reagent
Procedure: (§3) The cytotoxic study was carried out as reported previously. Briefly, IMR90, HepG-2, and A549 cells were grown in DMEM (Dulbecco’s Modified Eagle Medium) that contained 10% fetal bovine serum and 1% antibiotics. A total of 15 × 10^3 cells/well were seeded in 96-well plates and incubated under humidified conditions. Cells were treated with varying concentrations of synthesized triazoles for 24 h. After a 24 h treatment, 20 µL aqueous one solution reagent was added to each well and incubated for 3–4 h under a humidified condition. For IMR90 cells, MTT (MTT = 3-(4,5-dimethyl-2-thiazolyl)-2,5-diphenyl-2H-tetrazolium bromide) (5 mg/mL) was added and incubated for 3–4 h in the dark. After incubation, 100 µL of a 10% SDS (Sodium Dodecyl Sulfate) solution (0.01% HCl) was added to each well. The data was taken using an ELISA (enzyme-linked immunosorbent assay) reader at the absorbance of 490 nm for HepG-2 and A549 cells and 570 nm for IMR90 cells. The cell death was calculated using the following formula: Inhibition (%) = ((A − B)/A) × 100 (A—control group, B—treated group).

[24] = system: HepG-2 cells; assay: Cytotoxicity, aqueous one solution reagent
Procedure: as §3

[25] = system: IMR90 cells; assay: Cytotoxicity on normal cells, MTT; conditions: IMR-90, human normal IMR90 cells, 24 h treatment, read-out: IC50 against IMR90
Procedure: as §3

[26] = system: tested bacteria; assay: Antimicrobial well method, result in words; conditions: 1 mg/mL concentration
Procedure: as §1

`C[C@@H]([C@@H](c1ccccc1)n1cc(CO)nn1)N1CCCC1` [5a, (1R,2S)-1-(1-(1-Phenyl-2-(pyrrolidin-1-yl)propyl)-1H-1,2,3-triazol-4-yl)methanol] showed a zone of inhibition [1] of 14 mm, a zone of inhibition at 1 mg/well [2] of 14 mm and a zone of inhibition at 1 mg/well [3] of 20 mm. For the same compound, the zone of inhibition at 1 mg/well [4] was 12 mm, the zone of inhibition at 1 mg/well [5] was 28 mm and the zone of inhibition at 1 mg/well [6] was 17 mm. It also gave a zone of inhibition at 1 mg/well [7] of 14 mm, a zone of inhibition at 1 mg/well [8] of 14 mm and a zone of inhibition at 1 mg/well [9] of 22 mm. For the same compound, the zone of inhibition at 1 mg/well [10] was 13 mm, the zone of inhibition at 1 mg/well [11] was 12 mm and the zone of inhibition at 1 mg/well [12] was 14 mm. For the same compound, the MIC [13] was 250 µg/mL (≈ 873 µM), the MIC [14] was 62.5 µg/mL (≈ 218 µM) and the MIC [15] was 31.2 µg/mL (≈ 109 µM). For the same compound, the MIC [16] was 125 µg/mL (≈ 436 µM), the MIC [17] was 250 µg/mL (≈ 873 µM) and the MIC [18] was 250 µg/mL (≈ 873 µM). It also gave an MIC [19] of 62.5 µg/mL (≈ 218 µM), an MIC [20] of 250 µg/mL (≈ 873 µM) and an MIC [21] of 500 µg/mL (≈ 1750 µM). The MIC [22] was 250 µg/mL (≈ 873 µM), the “cytotoxic / anticancer activity against A549 cells” value [23] was “promising anticancer activity” and the IC50 ([23]; Homo sapiens, 24 h treatment, read-out: IC50 against A549) was 190 ± 1.35 µM. For the same compound, the “cytotoxic activity against HepG-2 cells” value [24] was “moderate activity”, the IC50 ([24]; Homo sapiens, HepG2, 24 h treatment, read-out: IC50 against HepG-2) was 275 ± 1.52 µM and the IC50 [25] was greater than 250 µM. The “antimicrobial activity against tested bacteria” value [26] was “promising activity”.
